Reference: PubChem BioAssay (NCI)
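Following 48 hours of exposure in 96-well plates, responses at five concentrations were used to interpolate endpoints linearly. TGI is the concentration that stops growth completely.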

Legend:
Assay in all cases: NCI-60 cell line screen, 48 h
[1] = tested on: 786-0 renal
[2] = tested on: OVCAR-5 ovarian
[3] = tested on: SK-MEL-5 melanoma
[4] = tested on: COLO 205 colon
[5] = tested on: LOX IMVI melanoma
[6] = tested on: HT29 colon
[7] = tested on: XF 498 CNS
[8] = tested on: HOP-92 NSCLC
[9] = tested on: KM20L2 colon
[10] = tested on: TK-10 renal
[11] = tested on: SW-620 colon
[12] = tested on: HCT-15 colon
[13] = tested on: CAKI-1 renal
[14] = tested on: M14 melanoma
[15] = tested on: K-562 leukemia
[16] = tested on: SF-268 CNS
[17] = tested on: HOP-18 NSCLC
[18] = tested on: OVCAR-8 ovarian
[19] = tested on: SK-OV-3 ovarian
[20] = tested on: NCI-H522 lung
[21] = tested on: SNB-75 CNS
[22] = tested on: DMS 273 small cell lung
[23] = tested on: DLD-1 colon
[24] = tested on: U251 CNS
[25] = tested on: KM12 colon
[26] = tested on: SNB-19 CNS
[27] = tested on: NCI-H23 lung
[28] = tested on: LXFL 529 NSCLC
[29] = tested on: SNB-78 CNS
[30] = tested on: DMS 114 small cell lung
[31] = tested on: SF-295 CNS
[32] = tested on: NCI-H226 lung
[33] = tested on: OVCAR-3 ovarian
[34] = tested on: MALME-3M melanoma
[35] = tested on: RPMI-8226 leukemia
[36] = tested on: SF-539 CNS
[37] = tested on: CCRF-CEM leukemia
[38] = tested on: EKVX NSCLC
[39] = tested on: HL-60(TB) leukemia
[40] = tested on: HCC-2998 colon
[41] = tested on: OVCAR-4 ovarian
[42] = tested on: SK-MEL-28 melanoma
[43] = tested on: IGROV1 ovarian
[44] = tested on: SK-MEL-2 melanoma
[45] = tested on: A549 NSCLC
[46] = tested on: A498 renal
[47] = tested on: HCT-116 colon
[48] = tested on: M19-MEL melanoma
[49] = tested on: RXF 393 renal
[50] = tested on: UACC-257 melanoma
[51] = tested on: UO-31 renal
[52] = tested on: UACC-62 melanoma
[53] = tested on: MOLT-4 leukemia
[54] = tested on: SN12C renal
[55] = tested on: SR leukemia
[56] = tested on: ACHN renal
[57] = tested on: NCI-H460 lung
[58] = tested on: HOP-62 NSCLC
[59] = tested on: BT-549 breast
[60] = tested on: MDA-MB-231 breast
[61] = tested on: T-47D breast
[62] = tested on: MCF7 breast
[63] = tested on: MDA-MB-435
[64] = tested on: MDA-N
[65] = tested on: NCI/ADR-RES ovarian
[66] = tested on: PC-3 prostate
[67] = tested on: DU-145 prostate
[68] = tested on: HS 578T breast

With `Clc1cc(Cl)c2c(Cl)cc(Cl)c3c2c1N=S=N3` the TGI [1] was over 100 µM, the TGI [2] was over 100 µM and the TGI [3] was over 100 µM. For the same compound, the TGI [4] was over 100 µM, the TGI [5] was over 100 µM and the TGI [6] was over 100 µM. It also gave a TGI [7] of 49 µM, a TGI [8] of over 100 µM and a TGI [9] of over 100 µM. It also gave a TGI [10] of over 100 µM, a TGI [11] of over 100 µM and a TGI [12] of over 100 µM. The TGI [13] was over 100 µM, the TGI [14] was over 100 µM and the TGI [15] was over 100 µM. The TGI [16] was over 100 µM, the TGI [17] was over 100 µM and the TGI [18] was over 100 µM. It also gave a TGI [19] of over 100 µM, a TGI [20] of over 100 µM and a TGI [21] of over 100 µM. It also gave a TGI [22] of over 100 µM, a TGI [23] of over 100 µM and a TGI [24] of over 100 µM. It also gave a TGI [25] of over 100 µM, a TGI [26] of over 100 µM and a TGI [27] of over 100 µM. The TGI [28] was over 100 µM, the TGI [29] was over 100 µM and the TGI [30] was over 100 µM. It also gave a TGI [31] of over 100 µM, a TGI [32] of over 100 µM and a TGI [33] of over 100 µM. It also gave a TGI [34] of over 100 µM, a TGI [35] of over 100 µM and a TGI [36] of over 100 µM. The TGI [37] was over 100 µM, the TGI [38] was over 100 µM and the TGI [39] was over 100 µM. For the same compound, the TGI [40] was over 100 µM, the TGI [41] was over 100 µM and the TGI [42] was over 100 µM. The TGI [43] was over 100 µM, the TGI [44] was over 100 µM and the TGI [45] was over 100 µM. The TGI [46] was over 100 µM, the TGI [47] was over 100 µM and the TGI [48] was over 100 µM. The TGI [49] was over 100 µM, the TGI [50] was over 100 µM and the TGI [51] was over 100 µM. The TGI [52] was over 100 µM and the TGI [53] was over 100 µM.

With `N#CC(C#N)=Cc1cccc(Oc2ccccc2)c1` the TGI [1] was 34.2 µM, the TGI [2] was over 100 µM and the TGI [3] was 36.6 µM. The TGI [4] was 73.9 µM, the TGI [5] was 43.6 µM and the TGI [6] was 49.9 µM. It also gave a TGI [7] of 46.6 µM, a TGI [9] of over 80.9 µM and a TGI [10] of over 70.6 µM. For the same compound, the TGI [11] was 58.7 µM, the TGI [12] was over 100 µM and the TGI [13] was 50.4 µM. The TGI [14] was 40.4 µM, the TGI [15] was over 95.4 µM and the TGI [54] was 48.9 µM. The TGI [16] was 40.6 µM, the TGI [17] was 42.4 µM and the TGI [55] was 61.3 µM. For the same compound, the TGI [18] was over 31.6 µM, the TGI [19] was over 100 µM and the TGI [20] was 51.2 µM. For the same compound, the TGI [21] was over 94.9 µM, the TGI [22] was 36.1 µM and the TGI [23] was 51.9 µM. For the same compound, the TGI [24] was 18.9 µM, the TGI [25] was 53.2 µM and the TGI [26] was 59.4 µM. The TGI [27] was 22 µM, the TGI [28] was 41 µM and the TGI [29] was 99.9 µM. It also gave a TGI [30] of 73.2 µM, a TGI [31] of 45.5 µM and a TGI [32] of over 69.1 µM. It also gave a TGI [33] of 72 µM, a TGI [56] of 34.1 µM and a TGI [34] of 43.4 µM. The TGI [35] was 62.5 µM, the TGI [57] was 61 µM and the TGI [36] was 35.1 µM. The TGI [37] was over 100 µM, the TGI [38] was over 100 µM and the TGI [39] was 47.3 µM. It also gave a TGI [40] of over 62.8 µM, a TGI [42] of 20 µM and a TGI [43] of 67 µM. It also gave a TGI [44] of 49 µM, a TGI [45] of over 100 µM and a TGI [46] of over 100 µM. It also gave a TGI [47] of 32.9 µM, a TGI [48] of over 79 µM and a TGI [49] of 33.4 µM. It also gave a TGI [50] of 28.1 µM, a TGI [51] of 30.8 µM and a TGI [52] of 53.3 µM. It also gave a TGI [53] of 78.7 µM and a TGI [58] of 64.6 µM.

In the case of `CC1OC(n2cc(F)c(=O)[nH]c2=O)C(O[Si](C)(C)C(C)(C)C)C1O[Si](C)(C)C(C)(C)C` (stereo not given), the TGI [1] is reported as 27.7 µM, the TGI [2] is reported as 31.1 µM and the TGI [59] is reported as 26.1 µM. For the same compound, the TGI [3] was 28.2 µM, the TGI [4] was 27.4 µM and the TGI [5] was 42 µM. The TGI [6] was 23.3 µM, the TGI [60] was 31.6 µM and the TGI [61] was 27.1 µM. It also gave a TGI [10] of 22.9 µM, a TGI [11] of 28.6 µM and a TGI [12] of 25.6 µM. It also gave a TGI [13] of 28.9 µM, a TGI [14] of 45 µM and a TGI [15] of 36.1 µM. For the same compound, the TGI [54] was 24.9 µM, the TGI [62] was 35.7 µM and the TGI [16] was 29.8 µM. The TGI [55] was over 100 µM, the TGI [18] was 28.9 µM and the TGI [19] was 32 µM. For the same compound, the TGI [20] was 16.8 µM, the TGI [21] was 31.3 µM and the TGI [24] was 26.9 µM. For the same compound, the TGI [25] was 26.1 µM, the TGI [26] was 30.1 µM and the TGI [27] was 23 µM. It also gave a TGI [31] of 27.1 µM, a TGI [32] of 31.1 µM and a TGI [63] of 34.5 µM. For the same compound, the TGI [33] was 37.3 µM, the TGI [56] was 26.9 µM and the TGI [64] was 29.3 µM. The TGI [65] was 27.7 µM, the TGI [34] was 28.5 µM and the TGI [35] was 35.4 µM. For the same compound, the TGI [66] was 27.3 µM, the TGI [36] was 28.7 µM and the TGI [37] was over 100 µM. It also gave a TGI [38] of 31.6 µM, a TGI [39] of 45.1 µM and a TGI [40] of 28.2 µM. It also gave a TGI [41] of 16.8 µM, a TGI [67] of 26.8 µM and a TGI [43] of 27.3 µM. It also gave a TGI [44] of 35.5 µM, a TGI [45] of 54.2 µM and a TGI [46] of 27.3 µM. For the same compound, the TGI [47] was 26.8 µM, the TGI [68] was 40.7 µM and the TGI [49] was 29.5 µM. For the same compound, the TGI [50] was 33.2 µM, the TGI [51] was 25.4 µM and the TGI [52] was 28.6 µM. The TGI [53] was over 100 µM and the TGI [58] was 43.7 µM.

Compound `O=C1NC(=S)S/C1=C/c1ccco1` has a TGI [2] of over 100 µM, a TGI [3] of over 100 µM and a TGI [4] of over 100 µM. For the same compound, the TGI [5] was over 100 µM, the TGI [6] was over 100 µM and the TGI [8] was over 100 µM. It also gave a TGI [10] of over 100 µM, a TGI [11] of over 100 µM and a TGI [12] of over 100 µM. It also gave a TGI [13] of over 100 µM, a TGI [14] of over 100 µM and a TGI [54] of over 100 µM. It also gave a TGI [16] of over 100 µM, a TGI [18] of over 100 µM and a TGI [19] of over 100 µM. It also gave a TGI [21] of over 100 µM, a TGI [22] of over 100 µM and a TGI [23] of over 100 µM. The TGI [26] was over 100 µM, the TGI [27] was over 100 µM and the TGI [28] was over 100 µM. It also gave a TGI [30] of over 100 µM, a TGI [31] of over 100 µM and a TGI [32] of over 100 µM. It also gave a TGI [33] of over 100 µM, a TGI [56] of over 100 µM and a TGI [57] of over 100 µM. It also gave a TGI [36] of over 100 µM, a TGI [38] of over 100 µM and a TGI [40] of over 100 µM. It also gave a TGI [41] of over 100 µM, a TGI [42] of over 100 µM and a TGI [43] of over 100 µM. The TGI [45] was over 100 µM, the TGI [46] was 64.3 µM and the TGI [47] was over 100 µM. The TGI [49] was over 100 µM, the TGI [50] was over 100 µM and the TGI [51] was over 100 µM. The TGI [52] was over 100 µM.
